{
  "source": "patent US8324166B2",
  "about": "“Neuroprotection using NAP-like and SAL-like peptide mimetics” (Ramot at Tel-Aviv University, Ltd., priority 2007, dated 2012)",
  "key": {"[1]": {"tested_on": "animal models simulating parts of the Alzheimer's disease pathology", "conditions": "in vivo; cited from earlier work"}, "[2]": {"tested_on": "ischemic injury", "conditions": "after ischemic injury; cited from earlier work"}, "[3]": {"tested_on": "normal aging rats", "conditions": "intranasal administration; cited from earlier work"}, "[4]": {"tested_on": "model of fetal alcohol syndrome", "conditions": "in vivo, ip; cited from earlier work"}, "[5]": {"conditions": "in vivo; cited from earlier work"}, "[6]": {"tested_on": "closed head injury in mice", "conditions": "cited from earlier work"}, "[7]": {"target": "beta III tubulin (Homo sapiens, UniProt Q13509)", "sequence (Q13509 whole entry)": "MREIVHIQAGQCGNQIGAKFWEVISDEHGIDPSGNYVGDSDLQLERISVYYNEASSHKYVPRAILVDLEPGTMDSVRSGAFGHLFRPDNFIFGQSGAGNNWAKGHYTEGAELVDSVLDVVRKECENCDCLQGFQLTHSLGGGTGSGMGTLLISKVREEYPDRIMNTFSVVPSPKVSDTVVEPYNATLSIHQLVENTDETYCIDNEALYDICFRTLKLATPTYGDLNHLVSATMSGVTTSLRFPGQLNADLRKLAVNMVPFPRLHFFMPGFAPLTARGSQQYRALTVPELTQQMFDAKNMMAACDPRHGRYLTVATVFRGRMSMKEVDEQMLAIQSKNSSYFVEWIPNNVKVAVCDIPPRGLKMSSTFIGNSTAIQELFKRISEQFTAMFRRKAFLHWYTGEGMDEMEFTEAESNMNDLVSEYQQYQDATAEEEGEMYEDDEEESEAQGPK", "sequence (Q71U36 whole entry partner)": "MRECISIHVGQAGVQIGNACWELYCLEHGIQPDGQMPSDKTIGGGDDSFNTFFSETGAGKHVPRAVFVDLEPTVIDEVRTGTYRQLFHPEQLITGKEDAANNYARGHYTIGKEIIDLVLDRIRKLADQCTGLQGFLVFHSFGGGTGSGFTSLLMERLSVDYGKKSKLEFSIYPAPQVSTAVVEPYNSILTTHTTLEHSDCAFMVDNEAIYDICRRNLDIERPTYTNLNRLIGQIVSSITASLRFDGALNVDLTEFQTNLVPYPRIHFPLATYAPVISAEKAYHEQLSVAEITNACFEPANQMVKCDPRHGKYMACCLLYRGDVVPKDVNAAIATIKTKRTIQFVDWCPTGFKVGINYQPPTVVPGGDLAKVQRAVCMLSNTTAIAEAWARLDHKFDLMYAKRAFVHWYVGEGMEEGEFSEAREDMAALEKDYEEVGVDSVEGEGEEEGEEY", "conditions": "affinity chromatography; cited from earlier work"}, "[8]": {"tested_on": "cell cultures exposed to a wide variety of toxins", "conditions": "against a wide variety of toxins; cited from earlier work"}, "[9]": {"tested_on": "neurons of the central nervous system", "conditions": "in vitro assays and in vivo disease models; cited from earlier work"}, "[10]": {"tested_on": "neurons in mixed neuroglial cultures intoxicated with beta-amyloid 1-42", "test": "MAP2 assay: neuronal survival in mixed neuroglial cultures following beta-amyloid intoxication", "format": "cell-based, rat", "description": "Newborn rats were used to prepare cerebral cortical astrocytes cell cultures as described above. After suspending the cells in D1, they were centrifuged at 100 g for 5 minutes and the supernatant discarded. The cell pellet was resuspended in solution D2 containing 5% heat inactivated horse serum (Biological Industries, Beit Haemek, Israel), 0.1% gentamycin, 0.1% penicillin-streptomycin-nystatin, 1% N3 (defined medium components essential for neuronal development in culture, (Romijn HJ, Brain Res., 254:583-9 (1981)]), 15 μg/ml 5′-fluoro-2-deoxyuridine (FUDR, Sigma, Rehovot, Israel), and 3 μg/ml uridine (Sigma, Rehovot, Israel) in DMEM. Cells were counted in a hemocytometer, diluted in D2 and 17,000 cells/well/96 well plate were seeded on 8-day-old astrocytes prepared as described above. The medium was changed the next day to D2 without FUDR and uridine. Cells were allowed to grow for one week at 37° C. 10% CO2 before experiments were performed.\nNeuronal survival in neuroglial cultures following beta-amyloid intoxication was assayed using the neuron specific antibody, MAP2. […] The cells were incubated for 5 days in 10% CO2 at 37°C.\n5 days after the addition of beta-amyloid and the peptide, the cells were fixed by removing the media from each well and the addition of cold methanol. The cells were left in the refrigerator overnight. The cells were immunostained with anti-MAP2 as previously described (Brooke S M et al., Neurosci. Lett., 267:21-4(1999)): the methanol was removed and the cells were washed 4 times with phosphate buffered saline (PBS). Blocking for non-specific antibody binding was performed by incubating the cells in 5% non-fat milk in PBS overnight at 4° C. The blocking solution was then removed and anti-MAP2(1:1000; Sigma, Rehovot, Israel) was added to each well. The cells were incubated for 30 minutes at room temperature, followed by 4 washes with PBS. Biotinylated anti-mouse IgG (1:200, Vector Laboratories, Burlingame, Calif., USA) was then added to each well, and the cells were incubated for 30 minutes at room temperature followed by 4 washes with PBS. The cells were incubated at room temperature for 30 minutes with the ABC reagent (Vector Laboratories, Burlingame, Calif., USA) prepared according to the manufacturer's protocol and then washed 4 times with PBS. ABTS reagent, prepared according to the manufacturer's protocol (Vector Laboratories, Burlingame, Calif., USA) was then added to each well and the cells were incubated for 20 minutes in the dark at room temperature. The plates were read in an ELISA plate reader at 405nm. As blanks, wells containing untreated cells and no primary antibody were used."}, "[11]": {"tested_on": "cerebral cortical astrocytes intoxicated with ZnCl2", "test": "MTS assay: survival of astrocytes following intoxication with ZnCl2", "format": "cell-based, mice", "description": "Cell cultures were prepared as previously described (McCarthy KD, de Vellis J., J. Cell Biol., 85:890-902 (1980); Gozes I et al., J. Pharmacol. Exp. Ther., 257:959-66 (1991)). Newborn mice (Harlan Biotech Israel Ltd., Rehovot, Israel) were sacrificed by decapitation and the brain was removed. The cortex was dissected and meninges were removed. The tissue was minced with scissors and placed in Hank's balanced salts solution X1 (HBSS, Biological Industries, Beit Haemek, Israel), 15 mM HEPES Buffer pH 7.3 (Biological Industries, Beit Haemek, Israel) and 0.25% trypsin (Biological Industries, Beit Haemek, Israel) in an incubator at 37° C. 10% CO2 for 20 minutes. The cells were then placed in 8 ml of solution D1 containing 10% heat inactivated fetal calf serum (Biological Industries, Beit Haemek, Israel), 0.1% gentamycin sulphate solution (Biological Industries, Beit Haemek, Israel) and 0.1% penicillin-streptomycin-nystatin solution (Biological Industries, Beit Haemek, Israel) in Dulbecco's modified Eagle's medium (DMEM, Sigma, Rehovot, Israel). The cells were allowed to settle, and were then transferred to a new tube containing 2.5 ml of D1 and triturated using a Pasteur pipette. The process was repeated twice more. Once all the cells were suspended, cell density was determined using a hemocytometer (Neubauer improved, Germany) and 1×10^6 cells/15 ml D1 were inoculated into each 75 cm^2 flask (Corning, Corning, N.Y., USA). Cells were incubated at 37° C. 10% CO2. The medium was changed after 24 hours and cells were grown until confluent (one week).\nThe flasks containing the cerebral cortical astrocytes were shaken to dislodge residual neurons and oligodendrocytes that may be present. Flasks were then washed with 10 ml cold HBSSx1, HEPES15 mM. 5 ml versene-trypsin solution (BioLab, Jerusalem, Israel) was added to each flask and the flasks were incubated at room temperature for 5 minutes to remove astrocytes. The flasks were then shaken to dislodge the cells. The versene-trypsin solution was neutralized with 5 ml D1. The cell suspension was collected and centrifuged at 100 g for 10 minutes. The supernatant was removed and the cells resuspended in D1. The cells were plated in 96 well plates (Corning, Corning, N.Y., USA) (each flask to 2 plates) and incubated until confluent at 37° C. 10% CO2.\nThe survival of astrocytes following intoxication with ZnCl2 was tested using the MTS assay. One week after sub-culturing the astrocytes into 96-well plates, the astrocyte growth medium was aspirated and fresh medium containing 200μM ZnCl2 and ascending concentrations of NATLSHIHQ (SEQ ID NO:4) or STPTAIPQ (SEQ ID NO:6)(concentration range: 10^−16-10^−7M) was added to the cells. The cells were incubated for 4 hours in 10% CO2 at 37°C., followed by an MTS assay using Celltiter 96 Aqueous non-radioactive cell proliferation assay (Promega, Madison, WI, USA) which was performed according to the manufacturer's instructions and read in an ELISA plate reader at 490nm."}},
  "note": "Where “and” joins values, the source holds several entries; their conditions need not be identical. Equal entries are not always repeated. Ends that are not written are not given here.",
  "data": [
    {"substance": "Asn-Ala-Pro-Val-Ser-Ile-Pro-Gln [NAP]", "values": [
      {"measurement": "protection in Alzheimer's disease models", "setting": "[1]", "result": "protective"},
      {"measurement": "infarct volume and motor function deficits", "setting": "[2]", "result": "reduced infarct volume and motor function deficits"},
      {"measurement": "performance in the Morris water maze", "setting": "[3]", "result": "improved performance"},
      {"measurement": "fetal death after intraperitoneal injection of alcohol", "setting": "[4]", "result": "inhibited"},
      {"measurement": "crossing of the blood-brain barrier", "setting": "[5]", "result": "can cross the blood-brain barrier"},
      {"measurement": "damage caused by closed head injury", "setting": "[6]", "result": "reducing damage"},
      {"measurement": "interaction with tubulin", "setting": "[7]", "result": "specifically interact with beta III tubulin"},
      {"measurement": "neuroprotective activity in cell cultures", "setting": "[8]", "result": "neuroprotective activity at femtomolar concentrations"}
    ]},
    {"substance": "SALLRSIPA", "values": [
      {"measurement": "neuron survival in response to various insults", "setting": "[9]", "result": "keep neurons of the central nervous system alive"}
    ]},
    {"substance": "STPTAIPQ (synthetic NAP-like peptide)", "values": [
      {"measurement": "effective concentrations on neuronal survival: Neurons (25 μM beta-amyloid)", "setting": "[10]; MAP2 assay, 5 days, tested 10^−19M to 10^−5M, significance vs negative control in cell", "result": "10^−13 M and 10 ^−5 M"},
      {"measurement": "activity in neuroprotection assay", "setting": "[10]; neuroglial cells, beta-amyloid", "result": "active"},
      {"measurement": "effective concentrations on astrocyte survival: Astrocytes (200 μM ZnCl2)", "setting": "[11]; MTS assay, 4 hours, tested 10^−16-10^−7M, significance vs negative control in cell", "result": "10^−7 (p < 0.05) M"},
      {"measurement": "activity in neuroprotection assay", "setting": "[11]; astrocytes, ZnCl2", "result": "active"}
    ]}
  ]
}
